# From ChEMBL document CHEMBL1914292, “Synthesis and in vitro cytotoxic activity of novel pyrazolo[3,4-d]pyrimidines and related pyrazole hydrazones toward breast adenocarcinoma MCF-7 cell line” (Bioorg Med Chem, 2011)
# Key:
# MCF7 [1] = assay: Cytotoxicity against human MCF7 cells after 48 hrs by SRB colorimetric assay; type: functional, cell-based; conditions: MCF7, 48 h
# MCF7 [2] = assay: Induction of oxidative stress in human MCF7 cells assessed as glutathione peroxidase activity per mg of protein at 1/10 of IC50 after 24 hrs (reference value: 9.3 +/- 1 U); type: functional
# MCF7 [3] = assay: Induction of oxidative stress in human MCF7 cells assessed as hydrogen peroxide level per mg of protein at 1/10 of IC50 after 24 hrs (reference value: 15.7 +/- 1.6 nmol); type: functional
# MCF7 [4] = assay: Induction of oxidative stress in human MCF7 cells assessed as superoxide dismutase activity per mg of protein at 1/10 of IC50 after 24 hrs (reference value: 40.3 +/- 4.75 U); type: functional
# MCF7 [5] = assay: Cytotoxicity against human MCF7 cells assessed as nitric oxide level per mg protein at 1/10 of IC50 after 24 hrs (reference value: 1.9 +/- 0.16 umol); type: functional
# MCF7 [6] = assay: Cytotoxicity against human MCF7 cells assessed as DNA level per 10 '6 cells at 1/10 of IC50 after 24 hrs (reference value: 8.5 +/- 0.8 ug); type: functional
# MCF7 [7] = assay: Cytotoxicity against human MCF7 cells assessed as protein level per 10 '6 cells at 1/10 of IC50 after 24 hrs (reference value: 110.5 +/- 12.3 ug); type: functional
# MCF7 [8] = assay: Cytotoxicity against human MCF7 cells assessed as RNA level per 10 '6 cells at 1/10 of IC50 after 24 hrs (reference value: 15.3 +/- 1.6 ug); type: functional
# MCF7 [9] = assay: Induction of oxidative stress in human MCF7 cells assessed as GSH level per mg of protein at 1/10 of IC50 after 24 hrs (reference value: 40 +/- 5 nmol); type: functional
# MCF7 [10] = assay: Induction of oxidative stress in human MCF7 cells assessed as catalase activity per mg of protein at 1/10 of IC50 after 24 hrs (reference value: 7.6 +/- 0.7 U); type: functional
Structure (SMILES),IC50 (MCF7 [1]),Activity (MCF7 [2]),Activity (MCF7 [3]),Activity (MCF7 [4]),Activity (MCF7 [5]),Activity (MCF7 [6]),Activity (MCF7 [7]),Activity (MCF7 [8]),Activity (MCF7 [9]),Activity (MCF7 [10])
COc1ccc(/C=N/n2c(C)nc3c(cnn3S(=O)(=O)c3ccc(Cl)cc3)c2=O)cc1OC,33.6 µM,,,,,,,,,
COc1cc(/C=N/n2c(C)nc3c(cnn3-c3ccc(Cl)cc3)c2=O)cc(OC)c1OC,7.6 µM,4.85 U,53.3 nmol,110 U,4.4 µmol,3 µg,27.5 µg,2.6 µg,17.8 nmol,2.2 U
COc1cc(/C=N/n2c(C)nc3c(cnn3-c3ccc(Cl)cc3)c2=O)ccc1O,19.8 µM,5.4 U,39.4 nmol,100.3 U,3.6 µmol,4.5 µg,42.6 µg,3.2 µg,23.5 nmol,3.5 U
COc1ccc(/C=N/n2c(C)nc3c(cnn3-c3ccc(Cl)cc3)c2=O)cc1OC,25 µM,,,,,,,,,
COc1cc(/C=N/n2c(C)nc3c(cnn3S(=O)(=O)c3ccc(Cl)cc3)c2=O)cc(OC)c1OC,27.8 µM,6.8 U,27.8 nmol,80 U,2.8 µmol,5.3 µg,78.3 µg,7.22 µg,34.2 nmol,4.3 U
COc1cc(C(=O)Nn2c(C)nc3c(cnn3S(=O)(=O)c3ccc(Cl)cc3)c2=O)cc(OC)c1OC,35.8 µM,,,,,,,,,
COc1ccc(/C=N/n2c(C)nc3c(cnn3-c3ccc(Cl)cc3)c2=O)cc1,38.6 µM,8 U,24.8 nmol,50 U,2.9 µmol,7 µg,80.2 µg,12 µg,36.3 nmol,7.4 U
Cc1nc2c(cnn2S(=O)(=O)c2ccc(Cl)cc2)c(=O)n1/N=C/c1ccccc1,22.4 µM,,,,,,,,,
COc1ccc(/C=N/n2c(C)nc3c(cnn3S(=O)(=O)c3ccc(Cl)cc3)c2=O)cc1,41.9 µM,,,,,,,,,
Cc1nc2c(cnn2-c2ccccc2)c(=O)n1-c1cnc2ccccc2c1,1.53 µM,,,,,,,,,
COc1ccc(/C=N/NC(=O)c2cn[nH]c2NC(C)=O)cc1OC,37.1 µM,,,,,,,,,
CC(=O)Nc1[nH]ncc1C(=O)N/N=C/c1ccccc1,42 µM,,,,,,,,,
COc1ccc(/C=N/NC(=O)c2cn[nH]c2NC(C)=O)cc1,61.7 µM,,,,,,,,,
Cc1nc2c(cnn2-c2ccc(Cl)cc2)c(=O)n1/N=C/c1ccccc1,23.1 µM,6 U,30 nmol,95.25 U,3 µmol,5.11 µg,55.4 µg,5 µg,30.4 nmol,3.82 U
COc1cc(/C=N/NC(=O)c2cn[nH]c2NC(C)=O)cc(OC)c1OC,32.1 µM,7.33 U,25.6 nmol,75.44 U,3 µmol,6.1 µg,85.8 µg,8.8 µg,30.11 nmol,5.85 U
